Assay [1] has as its target T1, DNA repair protein RAD52 homolog (Homo sapiens, UniProt P43351).
T1 sequence (P43351 whole entry): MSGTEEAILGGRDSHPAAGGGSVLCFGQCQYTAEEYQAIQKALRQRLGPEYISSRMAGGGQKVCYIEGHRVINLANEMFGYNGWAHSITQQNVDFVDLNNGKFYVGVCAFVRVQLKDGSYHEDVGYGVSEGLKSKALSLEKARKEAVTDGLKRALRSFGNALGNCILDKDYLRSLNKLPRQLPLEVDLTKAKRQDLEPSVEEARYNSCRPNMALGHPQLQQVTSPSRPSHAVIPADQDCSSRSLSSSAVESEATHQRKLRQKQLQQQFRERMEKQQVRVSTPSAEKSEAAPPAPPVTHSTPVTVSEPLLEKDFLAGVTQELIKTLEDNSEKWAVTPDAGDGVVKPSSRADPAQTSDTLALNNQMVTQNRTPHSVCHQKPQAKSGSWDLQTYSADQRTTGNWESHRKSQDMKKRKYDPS
Format: functional, biochemical.

Assay [2] addresses T2, DNA repair and recombination protein RAD54-like (Homo sapiens, UniProt Q92698).
T2 sequence (Q92698 whole entry): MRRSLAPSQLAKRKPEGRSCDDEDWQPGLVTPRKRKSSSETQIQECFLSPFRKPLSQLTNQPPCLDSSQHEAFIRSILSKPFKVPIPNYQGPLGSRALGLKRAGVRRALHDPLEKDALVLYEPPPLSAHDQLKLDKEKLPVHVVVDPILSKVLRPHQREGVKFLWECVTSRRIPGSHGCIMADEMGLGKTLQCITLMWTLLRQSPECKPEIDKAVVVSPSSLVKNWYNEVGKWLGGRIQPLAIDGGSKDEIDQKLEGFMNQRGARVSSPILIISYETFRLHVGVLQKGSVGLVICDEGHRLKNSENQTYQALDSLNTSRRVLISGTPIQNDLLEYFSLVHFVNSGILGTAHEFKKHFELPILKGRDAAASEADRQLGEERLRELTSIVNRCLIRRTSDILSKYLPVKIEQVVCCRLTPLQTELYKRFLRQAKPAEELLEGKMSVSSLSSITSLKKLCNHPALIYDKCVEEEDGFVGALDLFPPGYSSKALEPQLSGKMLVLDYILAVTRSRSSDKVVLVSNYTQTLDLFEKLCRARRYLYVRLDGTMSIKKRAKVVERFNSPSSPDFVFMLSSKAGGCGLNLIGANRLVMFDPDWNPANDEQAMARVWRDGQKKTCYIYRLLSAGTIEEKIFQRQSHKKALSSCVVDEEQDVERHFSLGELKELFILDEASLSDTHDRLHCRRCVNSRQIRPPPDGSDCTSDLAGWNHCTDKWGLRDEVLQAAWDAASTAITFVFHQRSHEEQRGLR
Put plainly: RAD54 Holliday junction migration blockers – biochemical, fluorescence, cherry-picked samples, dose series, confirmation (AID 651657). The format is functional.

Assay [3] concerns the target T3, Fatty acid synthase (Homo sapiens, UniProt P49327). Briefly: inhibition of human FAS-TE enzyme activity – biochemical, endpoint fluorescence intensity, uHTS hits, dose response (AID 624327).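 Further: fluorescence from hydrolysis of an O-methyl fluorescein acyl ester substrate by the enzyme.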 Format: functional.
The target in assay [4] is T3, Fatty acid synthase. Put plainly: inhibition of human FAS-TE enzyme activity – biochemical, kinetic fluorescence intensity, dose response (AID 624326).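 Further: rate of fluorescence rise from hydrolysis of a fluorogenic O-methyl fluorescein ester substrate.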 Format: functional.
Assay [5] can be described thus: blockers of HIV-1 ZM109 envelope-driven cell-cell fusion – HeLa effector, CEM target cells, luciferase, cherry-pick, dose response (AID 652058).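 Further: luciferase signal from HIV-1 Env mediated cell-cell fusion of effector and target cells.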 The format is functional, cell-based.
Assay [6] in a line: HIV-1 AD8 envelope cell-cell fusion blockers – cherry-pick, dose response (AID 652062).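 Further: luciferase signal from cell-cell fusion driven by HIV-1 clade B AD8 Env; potency is for inhibitors of fusion seen as a drop in luminescence.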 Format: functional, cell-based.
Another assay addresses T4, Protein skinhead-1 (Caenorhabditis elegans, UniProt P34707).
T4 sequence (P34707 whole entry): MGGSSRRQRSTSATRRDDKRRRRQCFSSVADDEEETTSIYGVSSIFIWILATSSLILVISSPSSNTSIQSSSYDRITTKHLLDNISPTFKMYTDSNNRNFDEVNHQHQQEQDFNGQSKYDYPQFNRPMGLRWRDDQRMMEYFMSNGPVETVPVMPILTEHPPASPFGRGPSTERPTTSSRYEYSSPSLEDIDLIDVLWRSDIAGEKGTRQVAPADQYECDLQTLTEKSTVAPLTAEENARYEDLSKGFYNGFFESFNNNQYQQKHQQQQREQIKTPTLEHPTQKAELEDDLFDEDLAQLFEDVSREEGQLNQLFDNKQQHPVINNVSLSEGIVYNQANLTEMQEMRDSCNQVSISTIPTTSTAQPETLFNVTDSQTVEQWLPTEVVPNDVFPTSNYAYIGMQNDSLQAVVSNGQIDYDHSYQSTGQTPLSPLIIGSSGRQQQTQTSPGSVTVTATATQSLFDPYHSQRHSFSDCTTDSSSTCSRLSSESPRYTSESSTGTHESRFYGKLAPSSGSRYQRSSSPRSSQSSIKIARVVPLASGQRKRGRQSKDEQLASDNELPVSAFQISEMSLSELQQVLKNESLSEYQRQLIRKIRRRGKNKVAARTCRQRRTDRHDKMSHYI
The format is functional.

The next assay addresses Cytochrome P450 2C9 (Homo sapiens, UniProt P11712).
Assay [7] is described as follows: blockers of HIV-1 envelope-mediated cell-cell fusion – cherry-pick, dose response (AID 652057). The format is functional, cell-based.
In assay [8] the target is T5, Rac GTPase-activating protein 1 (Homo sapiens, UniProt Q9H0H5).
T5 sequence (Q9H0H5 whole entry): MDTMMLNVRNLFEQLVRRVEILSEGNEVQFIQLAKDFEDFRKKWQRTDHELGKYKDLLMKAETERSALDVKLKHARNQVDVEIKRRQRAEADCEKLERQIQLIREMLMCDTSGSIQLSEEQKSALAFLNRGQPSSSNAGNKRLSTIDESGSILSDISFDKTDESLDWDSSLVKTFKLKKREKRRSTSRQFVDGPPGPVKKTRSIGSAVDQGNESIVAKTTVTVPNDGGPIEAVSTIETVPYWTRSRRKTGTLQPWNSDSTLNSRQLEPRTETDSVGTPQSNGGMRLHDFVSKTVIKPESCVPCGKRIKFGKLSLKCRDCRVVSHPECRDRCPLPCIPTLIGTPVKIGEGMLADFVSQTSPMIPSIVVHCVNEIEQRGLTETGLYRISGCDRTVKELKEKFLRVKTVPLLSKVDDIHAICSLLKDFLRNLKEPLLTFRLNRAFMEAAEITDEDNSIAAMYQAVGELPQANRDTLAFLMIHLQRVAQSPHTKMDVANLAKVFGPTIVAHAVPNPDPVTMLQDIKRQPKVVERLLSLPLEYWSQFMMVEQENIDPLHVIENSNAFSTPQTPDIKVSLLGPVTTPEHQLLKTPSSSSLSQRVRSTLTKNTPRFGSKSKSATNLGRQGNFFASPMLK
Put plainly: blockers of MgcRacGAP-driven Rac1 GTP hydrolysis – biochemical, ADP Hunter fluorescence, primary and confirmatory, confirmation (AID 624330). The format is functional.

Each structure is given as a SMILES string. Active and inactive are the calls of the source. Bounds are passed on as bounds.

The text below walks through data of ChEMBL document CHEMBL1201862, “PubChem BioAssay data set” (2004).

A word on the AC50: it is the concentration at which the activity in the assay is half-maximal. As usually defined, the IC50 is the midpoint of a concentration-inhibition curve.

T3 sequence (P49327 whole entry): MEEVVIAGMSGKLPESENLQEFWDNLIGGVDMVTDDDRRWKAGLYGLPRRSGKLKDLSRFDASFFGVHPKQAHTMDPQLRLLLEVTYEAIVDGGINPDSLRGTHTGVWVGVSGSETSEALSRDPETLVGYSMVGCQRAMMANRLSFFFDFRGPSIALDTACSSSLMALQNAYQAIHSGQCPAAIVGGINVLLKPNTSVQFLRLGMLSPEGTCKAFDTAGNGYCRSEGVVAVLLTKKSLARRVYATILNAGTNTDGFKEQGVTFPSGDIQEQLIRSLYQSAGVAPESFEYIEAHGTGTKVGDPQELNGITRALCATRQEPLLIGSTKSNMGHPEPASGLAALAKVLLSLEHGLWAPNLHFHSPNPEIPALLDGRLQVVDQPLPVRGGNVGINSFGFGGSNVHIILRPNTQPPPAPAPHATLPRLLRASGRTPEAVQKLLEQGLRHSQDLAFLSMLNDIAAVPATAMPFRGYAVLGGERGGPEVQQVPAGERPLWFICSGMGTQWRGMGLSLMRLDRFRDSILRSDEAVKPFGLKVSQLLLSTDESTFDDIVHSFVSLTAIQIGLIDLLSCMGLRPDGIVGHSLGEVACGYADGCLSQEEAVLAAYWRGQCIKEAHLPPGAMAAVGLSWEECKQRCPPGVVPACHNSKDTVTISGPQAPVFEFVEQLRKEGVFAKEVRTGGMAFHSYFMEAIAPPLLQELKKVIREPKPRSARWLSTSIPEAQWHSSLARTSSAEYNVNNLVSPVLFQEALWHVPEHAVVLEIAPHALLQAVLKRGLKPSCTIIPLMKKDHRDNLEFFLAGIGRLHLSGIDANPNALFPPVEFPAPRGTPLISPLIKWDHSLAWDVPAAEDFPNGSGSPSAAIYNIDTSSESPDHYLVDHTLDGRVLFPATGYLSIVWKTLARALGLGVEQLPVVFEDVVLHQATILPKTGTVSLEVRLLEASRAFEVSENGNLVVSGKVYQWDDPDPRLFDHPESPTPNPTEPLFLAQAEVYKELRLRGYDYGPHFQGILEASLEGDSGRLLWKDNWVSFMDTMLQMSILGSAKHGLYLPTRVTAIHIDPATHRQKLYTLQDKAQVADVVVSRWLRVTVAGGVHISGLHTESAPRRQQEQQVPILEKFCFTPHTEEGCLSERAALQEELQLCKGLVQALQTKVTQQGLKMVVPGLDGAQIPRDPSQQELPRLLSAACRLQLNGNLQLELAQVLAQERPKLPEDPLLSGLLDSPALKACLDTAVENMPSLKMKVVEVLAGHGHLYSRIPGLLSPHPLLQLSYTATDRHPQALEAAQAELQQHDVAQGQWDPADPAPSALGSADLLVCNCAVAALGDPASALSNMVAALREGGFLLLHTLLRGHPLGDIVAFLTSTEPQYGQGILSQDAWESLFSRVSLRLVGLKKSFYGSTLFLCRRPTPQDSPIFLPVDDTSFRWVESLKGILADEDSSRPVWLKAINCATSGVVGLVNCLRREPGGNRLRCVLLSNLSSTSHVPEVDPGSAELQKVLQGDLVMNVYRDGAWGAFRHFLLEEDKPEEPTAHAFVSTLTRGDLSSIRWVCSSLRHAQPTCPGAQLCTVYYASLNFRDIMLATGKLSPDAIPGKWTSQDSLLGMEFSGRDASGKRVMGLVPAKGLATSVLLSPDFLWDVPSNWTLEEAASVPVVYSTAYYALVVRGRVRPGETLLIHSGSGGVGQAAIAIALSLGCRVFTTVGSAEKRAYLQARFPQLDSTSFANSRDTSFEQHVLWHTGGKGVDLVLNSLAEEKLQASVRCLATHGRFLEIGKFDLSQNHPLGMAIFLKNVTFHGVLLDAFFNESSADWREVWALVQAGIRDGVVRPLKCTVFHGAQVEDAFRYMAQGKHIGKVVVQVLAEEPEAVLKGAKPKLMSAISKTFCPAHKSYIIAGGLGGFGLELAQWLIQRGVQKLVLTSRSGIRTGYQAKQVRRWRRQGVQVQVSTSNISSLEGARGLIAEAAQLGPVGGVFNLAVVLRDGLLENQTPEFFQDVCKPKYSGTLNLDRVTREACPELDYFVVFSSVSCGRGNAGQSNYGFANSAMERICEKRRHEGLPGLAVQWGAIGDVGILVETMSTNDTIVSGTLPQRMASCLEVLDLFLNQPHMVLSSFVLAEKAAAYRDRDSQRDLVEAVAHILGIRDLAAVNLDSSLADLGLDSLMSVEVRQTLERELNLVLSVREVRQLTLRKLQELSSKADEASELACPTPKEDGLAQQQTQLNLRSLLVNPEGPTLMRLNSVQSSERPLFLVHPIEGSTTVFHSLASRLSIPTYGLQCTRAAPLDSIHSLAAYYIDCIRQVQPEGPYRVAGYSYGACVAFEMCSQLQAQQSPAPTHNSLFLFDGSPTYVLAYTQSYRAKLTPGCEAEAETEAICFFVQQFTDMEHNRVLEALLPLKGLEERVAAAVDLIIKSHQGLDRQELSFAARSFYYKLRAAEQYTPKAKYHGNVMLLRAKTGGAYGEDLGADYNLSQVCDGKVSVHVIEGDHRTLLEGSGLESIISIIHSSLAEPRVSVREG
Cytochrome P450 2C9, sequence (P11712 whole entry, the tested form may be a part): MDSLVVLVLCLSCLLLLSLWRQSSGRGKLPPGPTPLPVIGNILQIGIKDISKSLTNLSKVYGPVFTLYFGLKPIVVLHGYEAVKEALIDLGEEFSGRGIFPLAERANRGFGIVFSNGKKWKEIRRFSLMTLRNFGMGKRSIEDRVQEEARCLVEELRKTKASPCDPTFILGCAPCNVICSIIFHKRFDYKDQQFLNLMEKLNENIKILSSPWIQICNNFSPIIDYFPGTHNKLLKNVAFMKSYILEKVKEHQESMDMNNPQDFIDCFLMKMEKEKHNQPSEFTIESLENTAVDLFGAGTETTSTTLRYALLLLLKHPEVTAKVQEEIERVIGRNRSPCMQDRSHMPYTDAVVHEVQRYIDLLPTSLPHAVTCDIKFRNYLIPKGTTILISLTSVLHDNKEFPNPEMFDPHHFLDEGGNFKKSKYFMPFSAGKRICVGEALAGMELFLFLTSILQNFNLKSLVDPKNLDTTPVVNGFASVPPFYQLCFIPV

Turning to `CCCCN(CC)CCCNC(=S)Nc1ccc2nc(N3CCN(C)CC3)cc(C)c2c1`, the figures for the AC50 in assay [1] and in assay [2] were 1.95 µM (active) and 30.8 µM (active), respectively. For the compound `CN(C)CCCNC(=O)/C(=C\C=C\c1ccccc1)NC(=O)c1ccc([N+](=O)[O-])cc1`, the IC50 at Fatty acid synthase [3] is 0.87 µM (active); on Fatty acid synthase [4], 4.11 µM (active).

In the case of `COc1ccc(NC(=O)COC(=O)c2cc([N+](=O)[O-])ccc2N2CCOCC2)cc1`, the results for the concentration for half-maximal inhibition (IC50) on Fatty acid synthase [3] and at Fatty acid synthase [4] were 2.92 µM (active) and 2.1 µM (active), respectively.

As for `COc1ccc(N2CCn3c2nc2c3c(=O)n(CCCc3ccccc3)c(=O)n2C)c(OC)c1`, the values for the concentration at half-maximal activity (AC50) in assay [5] and in [6] were 0.572 µM (active) and 5.71 µM (active), respectively. For `Cc1cccc(C)c1OCC(=O)Nc1nnc(C2CCCO2)s1` (stereo not given), the IC50 on Protein skinhead-1 is > 100 µM (inactive).

On to `CC(CCc1ccco1)NC(=O)CSc1cc(=O)n(C)c2ccccc12` (stereo not given), for which the IC50 at Protein skinhead-1 is > 100 µM (inactive). With `O=C(N/C(=C/c1ccccc1)C(=O)N1CCOCC1)c1ccc([N+](=O)[O-])cc1`, the IC50 at Fatty acid synthase [3] was 16.8 µM (active); at Fatty acid synthase [4], 7.55 µM (active). With `CCN(CCCNC(=O)CC(C(=O)N1CCc2ccccc21)n1ccnc1)c1cccc(C)c1` (stereo not given), at Protein skinhead-1, the IC50 was > 100 µM (inactive).

Regarding `O=[N+]([O-])c1ccc(N2CCc3ccccc3C2)cc1`, the IC50 at Protein skinhead-1 is > 100 µM (inactive).

With `Clc1ccc(Cc2nc(-c3cccnc3)no2)cc1`, the AC50 at Cytochrome P450 2C9 is 28.2 µM (inconclusive). Moreover, at Protein skinhead-1, the IC50 was 36.4 µM (active). For the compound `CN(Cc1ccccc1)C(=O)COC(=O)c1cc(Cl)nc(Cl)c1`, the IC50 on Fatty acid synthase [3] was 8.07 µM (active); on Fatty acid synthase [4], 13.5 µM (active). For `O=C(COC(=O)c1cc([N+](=O)[O-])ccc1NCCO)c1ccccc1`, in that order: 8.17 µM (active) and 8.98 µM (active). `Cc1cccnc1Nc1nc(-c2ccc(F)cc2)cs1`: the IC50 on Protein skinhead-1 is 89.2 µM (inactive). Regarding `CCN(CC)CCn1c2ccc(Cl)cc2c2nc(C)sc21`, the AC50 was 5.39 µM (active) in assay [1] and 22.1 µM (active) in [2]. As for `Nc1sccc1C(=O)NCc1ccccc1`, on Protein skinhead-1, the IC50 was > 100 µM (inactive). In the case of `C[C@H](CO)N1C[C@H](C)[C@@H](CN(C)Cc2ccncc2)Oc2cc(C3=CCCCC3)ccc2S1(=O)=O`, the concentration at half-maximal activity (AC50) in assay [5] was 12.3 µM (active); in assay [7], 13.4 µM (active). Turning to `O=C(CCC(=O)Nc1ccc(Br)cc1)N/N=C/c1cc([N+](=O)[O-])ccc1O`, the figures for the IC50 at Fatty acid synthase [3] and on Fatty acid synthase [4] were 12.9 µM (active) and 8.73 µM (active), respectively. Take `Oc1ccc(Nc2ccnc3cc(Cl)ccc23)cc1`: the AC50 in [2] is 80.3 µM (active). For the same compound, the IC50 in assay [8] is 28.1 µM (active).
